Source: patent US20220396565A1 (Hoffmann-La Roche Inc., priority 2020, published 2022)
Counter-ions that a name gives are not always drawn.

The compounds below were run on Acinetobacter baumannii ATCC17961 (assay: Antimicrobial susceptibility testing: 90% growth inhibitory concentration (IC90) determination, Iso-Sensitest broth). Conditions: Acinetobacter baumannii, ATCC17961, 90% growth inhibitory concentration, Acinetobacter baumannii ATCC17961, Iso-Sensitest broth; read-out: ATCC 17961 IC90.
Format: cell-based
In short: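 Twofold serial dilutions (e.g. 10 to 0.02 μM final) were tested in Iso-Sensitest broth against ~5×10^(5) CFU/ml at 35±2 °C. OD600 was read every 20 min over 16 h. IC90 was derived from growth inhibition during the logarithmic phase.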

| Compound | IC90 |
| --- | --- |
| COc1ccc(-c2cnc(C(=O)Nc3ccc(C(=O)N4CCN(S(=O)(=O)C5CCNCC5)CC4)c(Cl)c3)n2C)c(F)c1F [Example 216, N-(3-chloro-4-(4-(piperidin-4-ylsulfonyl)piperazine-1-carbonyl)phenyl)-5-(2,3-difluoro-4-methoxyphenyl)-1-methyl-1H-imidazole-2-carboxamide formate] | 0.12 µM |
| COc1ccc(-c2cnc(C(=O)Nc3ccc(C(=O)N4CC(NC(=O)CN)C4)c(Cl)c3)n2C)c(F)c1F [Example 217, N-(4-(3-(2-aminoacetamido)azetidine-1-carbonyl)-3-chlorophenyl)-5-(2,3-difluoro-4-methoxyphenyl)-1-methyl-1H-imidazole-2-carboxamide formate] | 0.09 µM |
| COc1ccc(-c2cnc(C(=O)Nc3ccc(C(=O)N4CC(NC(=O)C5CC(CN)C5)C4)c(Cl)c3)n2C)c(F)c1F (stereo not drawn) [Example 218, N-(4-(3-(3-(aminomethyl)cyclobutane-1-carboxamido)azetidine-1-carbonyl)-3-chlorophenyl)-5-(2,3-difluoro-4-methoxyphenyl)-1-methyl-1H-imidazole-2-carboxamide 2,2,2-trifluoroacetate] | 0.09 µM |
| COc1ccc(-c2cnc(C(=O)Nc3ccc(C(=O)N4CCN(C(=O)C5CC(O)C5)CC4)c(Cl)c3)n2C)c(F)c1F (stereo not drawn) [Example 219, N-(3-chloro-4-(4-(3-hydroxycyclobutane-1-carbonyl)piperazine-1-carbonyl)phenyl)-5-(2,3-difluoro-4-methoxyphenyl)-1-methyl-1H-imidazole-2-carboxamide] | 0.11 µM |
| CN(C)CC(=O)N1CCN(C(=O)c2ccc(NC(=O)c3ncc(-c4ccc(OCF)c(F)c4F)n3C)cc2Cl)CC1 [Example 220, N-(3-chloro-4-(4-(dimethylglycyl)piperazine-1-carbonyl)phenyl)-5-(2,3-difluoro-4-(fluoromethoxy)phenyl)-1-methyl-1H-imidazole-2-carboxamide formate] | 0.04 µM |
| Cn1c(-c2ccc(OCF)c(F)c2F)cnc1C(=O)Nc1ccc(C(=O)N2CCN(C(=O)[C@@H]3C[C@@H](O)CN3)CC2)c(Cl)c1 [Example 221, N-(3-chloro-4-(4-((2S,4R)-4-hydroxypyrrolidine-2-carbonyl)piperazine-1-carbonyl)phenyl)-5-(2,3-difluoro-4-(fluoromethoxy)phenyl)-1-methyl-1H-imidazole-2-carboxamide formate] | 0.05 µM |
| CN(C)CC(=O)N1CCN(C(=O)c2ccc(NC(=O)c3ncc(-c4ccc(OCF)cc4F)n3C)cc2Cl)CC1 [Example 222, N-(3-chloro-4-(4-(dimethylglycyl)piperazine-1-carbonyl)phenyl)-5-(2-fluoro-4-(fluoromethoxy)phenyl)-1-methyl-1H-imidazole-2-carboxamide] | 0.09 µM |
| Cn1c(-c2ccc(OC(F)F)c(F)c2F)cnc1C(=O)Nc1ccc(C(=O)N2CCN(C(=O)C[C@@H]3CCCN3)CC2)c(Cl)c1 [Example 224, (S)-N-(3-chloro-4-(4-(2-(pyrrolidin-2-yl)acetyl)piperazine-1-carbonyl)phenyl)-5-(4-(difluoromethoxy)-2,3-difluorophenyl)-1-methyl-1H-imidazole-2-carboxamide formate] | 0.03 µM |
| Cc1cc(NC(=O)c2ncc(-c3ccc(OCC#N)c(F)c3F)n2C)ccc1C(=O)N1CCN(C(=O)[C@@H]2C[C@](C)(O)CN2)CC1 [Example 225, 5-[4-(cyanomethoxy)-2,3-difluoro-phenyl]-N-[4-[4-[(2S,4S)-4-hydroxy-4-methyl-pyrrolidine-2-carbonyl]piperazine-1-carbonyl]-3-methyl-phenyl]-1-methyl-imidazole-2-carboxamide formate] | 0.16 µM |
| CC[C@@]1(O)CN[C@H](C(=O)N2CCN(C(=O)c3ccc(NC(=O)c4ncc(-c5ccc(OCC#N)c(F)c5F)n4C)cc3C)CC2)C1 [Example 226, 5-[4-(cyanomethoxy)-2,3-difluoro-phenyl]-N-[4-[4-[(2S,4S)-4-ethyl-4-hydroxy-pyrrolidine-2-carbonyl]piperazine-1-carbonyl]-3-methyl-phenyl]-1-methyl-imidazole-2-carboxamide formate] | 0.13 µM |
| Cn1c(-c2ccc(OCC#N)c(F)c2F)cnc1C(=O)Nc1ccc(C(=O)N2CCN(C(=O)[C@@H]3CCNC[C@H]3O)CC2)c(Cl)c1 [Example 227, N-(3-chloro-4-(4-((3S,4R)-3-hydroxypiperidine-4-carbonyl)piperazine-1-carbonyl)phenyl)-5-(4-(cyanomethoxy)-2,3-difluorophenyl)-1-methyl 1H-imidazole-2-carboxamide (S)-2-hydroxypropanoate] | 0.09 µM |
| COc1ccc(-c2cnc(C(=O)Nc3ccc(C(=O)N4CCN(C(=O)[C@@H]5CCNC[C@@H]5O)CC4)c(Cl)c3)n2C)c(F)c1F [Example 228, N-[3-chloro-4-[4-[(3R,4R)-3-hydroxypiperidine-4-carbonyl]piperazine-1-carbonyl]phenyl]-5-(2,3-difluoro-4-methoxy-phenyl)-1-methyl-imidazole-2-carboxamide] | 0.18 µM |
| COc1ccc(-c2cnc(C(=O)Nc3ccc(C(=O)N4CCN(C(=O)[C@H]5CCNC[C@H]5O)CC4)c(Cl)c3)n2C)c(F)c1F [Example 229, N-[3-chloro-4-[4-[(3S,4S)-3-hydroxypiperidine-4-carbonyl]piperazine-1-carbonyl]phenyl]-5-(2,3-difluoro-4-methoxy-phenyl)-1-methyl-imidazole-2-carboxamide] | 0.09 µM |
| COc1ccc(-c2cnc(C(=O)Nc3ccc(C(=O)N4CCN(C(=O)[C@@H]5CCNC[C@H]5O)CC4)c(Cl)c3)n2C)c(F)c1F [Example 230, N-[3-chloro-4-[4-[(3S,4R)-3-hydroxypiperidine-4-carbonyl]piperazine-1-carbonyl]phenyl]-5-(2,3-difluoro-4-methoxy-phenyl)-1-methyl-imidazole-2-carboxamide formate] | 0.1 µM |
| COc1ccc(-c2cnc(C(=O)Nc3ccc(C(=O)N4CCN(C(=O)[C@H]5CCNC[C@@H]5O)CC4)c(Cl)c3)n2C)c(F)c1F [Example 231, N-[3-chloro-4-[4-[(3R,4S)-3-hydroxypiperidine-4-carbonyl]piperazine-1-carbonyl]phenyl]-5-(2,3-difluoro-4-methoxy-phenyl)-1-methyl-imidazole-2-carboxamide formate] | 0.16 µM |
| COc1ccc(-c2cnc(C(=O)Nc3ccc(C(=O)N4CCN(C(=O)[C@@H]5C[C@](C)(O)CN5)CC4)c(Cl)c3)n2C)c(F)c1F [Example 232, N-[3-chloro-4-[4-[(2S,4S)-4-hydroxy-4-methyl-pyrrolidine-2-carbonyl]piperazine-1-carbonyl]phenyl]-5-(2,3-difluoro-4-methoxy-phenyl)-1-methyl-imidazole-2-carboxamide formate] | 0.09 µM |
| CC[C@@]1(O)CN[C@H](C(=O)N2CCN(C(=O)c3ccc(NC(=O)c4ncc(-c5ccc(OC)c(F)c5F)n4C)cc3Cl)CC2)C1 [Example 233, N-[3-chloro-4-[4-[(2S,4S)-4-ethyl-4-hydroxy-pyrrolidine-2-carbonyl]piperazine-1-carbonyl]phenyl]-5-(2,3-difluoro-4-methoxy-phenyl)-1-methyl-imidazole-2-carboxamide formate] | 0.13 µM |
| COc1ccc(-c2cnc(C(=O)Nc3ccc(C(=O)N4CCN(C(=O)[C@@H]5CCNC[C@@H]5O)CC4)c(C)c3)n2C)c(F)c1F [Example 234, 5-(2,3-difluoro-4-methoxy-phenyl)-N-[4-[4-[(3R,4R)-3-hydroxypiperidine-4-carbonyl]piperazine-1-carbonyl]-3-methyl-phenyl]-1-methyl-imidazole-2-carboxamide formate] | 0.18 µM |
| COc1ccc(-c2cnc(C(=O)Nc3ccc(C(=O)N4CCC(NS(=O)(=O)CCN)CC4)c(Cl)c3)n2C)c(F)c1F [Example 236, N-[4-[4-(2-aminoethylsulfonylami-no)piperidine-1-carbonyl]-3-chloro-phenyl]-5-(2,3-difluoro-4-methoxy-phenyl)-1-methyl-imidazole-2-carboxamide] | 0.06 µM |
| COc1ccc(-c2cnc(C(=O)Nc3ccc(C(=O)N4CCC(NS(=O)(=O)C5CCNC5)CC4)c(Cl)c3)n2C)c(F)c1F (stereo not drawn) [Example 237, N-[3-chloro-4-[4-(pyrrolidin-3-ylsulfonylamino)piper-idine-1-carbonyl]phenyl]-5-(2,3-difluoro-4-methoxy-phenyl)-1-methyl-imidazole-2-carboxamide] | 0.05 µM |
| COc1ccc(-c2cnc(C(=O)Nc3ccc(C(=O)N4CCC(NS(C)(=O)=O)CC4)c(Cl)c3)n2C)c(F)c1F [Example 238, N-[3-chloro-4-[4-(methanesulfonamido)piperidine-1-carbonyl]phenyl]-5-(2,3-difluoro-4-methoxy-phenyl)-1-methyl-imidazole-2-carboxamide] | 0.13 µM |
| COc1ccc(-c2cnc(C(=O)Nc3ccc(C(=O)N4CCN(S(=O)(=O)CCN)CC4)c(Cl)c3)n2C)c(F)c1F [Example 239, N-[4-[4-(2-aminoethylsulfonyl)piper-razine-1-carbonyl]-3-chloro-phenyl]-5-(2,3-difluoro-4-methoxy-phenyl)-1-methyl-imidazole-2-carboxamide] | 0.15 µM |

Same assay, conditions: Acinetobacter baumannii, ATCC17961, read-out: ATCC 17961 IC90

| Compound | IC90 |
| --- | --- |
| Cn1c(-c2ccc(OC(F)F)c(F)c2F)cnc1C(=O)Nc1ccc(C(=O)N2CCN(C(=O)CC3(O)CCNCC3)CC2)c(Cl)c1 [Example 223, N-(3-chloro-4-(4-(2-(4-hydroxypiperidin-4-yl)acetyl)piperazine-1-carbonyl)phenyl)-5-(4-(difluoromethoxy)-2,3-difluorophenyl)-1-methyl 1H-imidazole-2-carboxamide formate] | 0.05 µM |
| COc1ccc(-c2cnc(C(=O)Nc3ccc(C(=O)N4CCC(NS(=O)(=O)C5CCNCC5)CC4)c(Cl)c3)n2C)c(F)c1F [Example 235, N-[3-Chloro-4-[4-(4-piperidylsulfonylamino)piperidine-1-carbonyl]phenyl]-5-(2,3-difluoro-4-methoxy-phenyl)-1-methyl-imidazole-2-carboxamide formate] | 0.06 µM |
